Laboratory results taken from patent US20210087640A1, “APPLICATION OF LARP7 GENE IN CANCER DIAGNOSIS AND TREATMENT” (SHANGHAI JIAO TONG UNIVERSITY, priority 2018, published 2021).
Like-named read-outs stand apart in the source and are kept apart here.

How the values were obtained:
[1] = tested on: triple-negative breast cancer cells HCC1937; assay: CCK8 cell viability experiment, HCC1937; type: cell-based; details: read-out: IC50 (the concentration of drug required for 50% inhibition)
[2] = tested on: Hela; assay: Clone formation experiment, Hela; type: cell-based; details: LARP7 overexpression in Hela vs control
[3] = tested on: MDA-MB-231 xenograft tumor; assay: Radiotherapy and chemotherapy of xenograft tumor mice, MDA-MB-231; type: in vivo; details: CDDP and radiation
[4] = tested on: triple-negative breast cancer cells MDA-MB-231; assay: CCK8 cell viability experiment, MDA-MB-231; type: cell-based
[5] = tested on: HCC1937 xenograft tumor; assay: Radiotherapy and chemotherapy of xenograft tumor mice, HCC1937; type: in vivo; details: CDDP and radiation
[6] = tested on: cervical cancer cells Hela; assay: CCK8 cell viability experiment, Hela; type: cell-based
[7] = tested on: MDA-MB-231; assay: Clone formation experiment, MDA-MB-231; type: cell-based; details: LARP7 overexpression in MDA-MB-231 vs control

| Structure (SMILES) | IC50 ([1]; HCC1937 control group (of LARP7 knock-down)) [µM] | IC50 ([1]; LARP7-knock-down HCC1937 cells) [µM] | sensitivity of the cells by clone formation [2] | sensitivity of in vivo tumor tissue ([3]; MDA-MB-231 cells (low LARP7 expression)) | sensitivity of in vivo tumor tissue ([3]; MDA-MB-231 cells with artificial LARP7 overexpression) | IC50 ([4]; LARP7-overexpressing MDA-MB-231 cells) [µM] | IC50 ([4]; MDA-MB-231 control group (of LARP7 overexpression)) [µM] | sensitivity of in vivo tumor tissue ([5]; HCC1937 cells (high LARP7 expression)) | sensitivity of in vivo tumor tissue ([5]; LARP7-knock-out HCC1937 cells (sgLARP7)) | IC50 ([6]; LARP7-knockdown (siLARP7, sgLARP7)) [µM] | IC50 ([6]; LARP7 overexpression) [µM] | IC50 ([6]; control group of LARP7-knockdown) [µM] | IC50 ([6]; control group of LARP7 overexpression) [µM] | sensitivity of the cells by clone formation [7] | IC50 ([1]; Homo sapiens, HCC1937, HCC1937 control group (of LARP7 knock-down)) [µM] | IC50 ([1]; Homo sapiens, HCC1937, LARP7-knock-down HCC1937 cells) [µM] | IC50 ([4]; Homo sapiens, MDA-MB-231, LARP7-overexpressing MDA-MB-231 cells) [µM] | IC50 ([4]; Homo sapiens, MDA-MB-231, MDA-MB-231 control group (of LARP7 overexpression)) [µM] | IC50 ([6]; Homo sapiens, HeLa, LARP7 overexpression) [µM] | IC50 ([6]; Homo sapiens, HeLa, control group of LARP7 overexpression) [µM] |
| --- | --- | --- | --- | --- | --- | --- | --- | --- | --- | --- | --- | --- | --- | --- | --- | --- | --- | --- | --- | --- |
| [NH2][Pt]([NH2])([Cl])[Cl] [CDDP, cisplatin] | 102 ± 9.1 | 185 ± 20.5 | significantly increases cell sensitivity | tolerant | significantly improved the sensitivity | 76.3 ± 26.7 | 232 ± 83.9 | sensitive | less sensitive | 55.8 ± 5.4 | 19.1 ± 6.9 | 31.4 ± 6 | 39.6 ± 2.5 | significantly increases the sensitivity | – | – | – | – | – | – |
| CO[C@@]12[C@H](COC(N)=O)C3=C(C(=O)C(C)=C(N)C3=O)N1C[C@@H]1N[C@@H]12 [MMS, mitomycin] | – | – | – | – | – | – | – | – | – | – | – | – | – | – | 247 ± 38.1 | 682 ± 123 | 262 ± 20.3 | 451 ± 29.4 | 123 ± 22 | 210 ± 21.6 |
